ChEMBL document CHEMBL1144080, “Antihyperglycemic sesquiterpenes from Psacalium decompositum” (1999)

Columns and labels:
Assay type in all cases: functional
Mus musculus [1] = assay: Antihyperglycemic activity in C57BL-6J ob/ob mouse type 2 diabetic model assessed as changes in plasma glucose level at 1000 mg/kg, po administered as single dose for 3 hrs
Mus musculus [2] = assay: Antihyperglycemic activity in C57BL-6J ob/ob mouse type 2 diabetic model assessed as changes in plasma glucose level at 1000 mg/kg, po administered as single dose for 24 hrs
Mus musculus [3] = assay: Antihyperglycemic activity in C57BL-6J ob/ob mouse type 2 diabetic model assessed as body weight per mouse at 1000 mg/kg, po administered as single dose for 24 hrs
Mus musculus [4] = assay: Antihyperglycemic activity in C57BL-6J ob/ob mouse type 2 diabetic model assessed as food intake per mouse at 1000 mg/kg, po administered as single dose
Mus musculus [5] = assay: Antihyperglycemic activity in C57BL-6J ob/ob mouse type 2 diabetic model assessed as changes in plasma glucose level at 1.09 mmol/kg, po administered as single dose for 3 hrs
Mus musculus [6] = assay: Antihyperglycemic activity in C57BL-6J ob/ob mouse type 2 diabetic model assessed as changes in plasma glucose level at 1.09 mmol/kg, po administered as single dose for 24 hrs
Mus musculus [7] = assay: Antihyperglycemic activity in C57BL-6J ob/ob mouse type 2 diabetic model assessed as body weight per mouse at 1.09 mmol/kg, po administered as single dose for 24 hrs
Mus musculus [8] = assay: Antihyperglycemic activity in C57BL-6J ob/ob mouse type 2 diabetic model assessed as food intake per mouse at 1.09 mmol/kg, po administered as single dose
Mus musculus [9] = assay: Antihyperglycemic activity in C57BL-6J ob/ob mouse type 2 diabetic model assessed as changes in plasma glucose level at 1.5 mmol/kg, po administered as single dose for 3 hrs
Mus musculus [10] = assay: Antihyperglycemic activity in C57BL-6J ob/ob mouse type 2 diabetic model assessed as changes in plasma glucose level at 1.5 mmol/kg, po administered as single dose for 24 hrs
Mus musculus [11] = assay: Antihyperglycemic activity in C57BL-6J ob/ob mouse type 2 diabetic model assessed as body weight per mouse at 1.5 mmol/kg, po administered as single dose for 24 hrs
Mus musculus [12] = assay: Antihyperglycemic activity in C57BL-6J ob/ob mouse type 2 diabetic model assessed as food intake per mouse at 1.5 mmol/kg, po administered as single dose

In the case of `Cc1coc2c1[C@@](C)(O)C1=C(CCC[C@@H]1C)C2=O` [EPICACALONE], the Activity (Mus musculus [1]) is reported as -105.1 mg/dL, the Activity (Mus musculus [2]) is reported as -13.4 mg/dL and the Activity (Mus musculus [3]) is reported as 45 g. The Activity (Mus musculus [4]) was 4.6 g, the Activity (Mus musculus [5]) was -42.4 mg/dL and the Activity (Mus musculus [6]) was 30.9 mg/dL. For the same compound, the Activity (Mus musculus [7]) was 43.3 g and the Activity (Mus musculus [8]) was 4 g.
In the case of `Cc1coc2c1[C@](C)(O)C1=C(CCC[C@@H]1C)C2=O` [CACALONE], the Activity (Mus musculus [1]) is reported as -105.1 mg/dL, the Activity (Mus musculus [2]) is reported as -13.4 mg/dL and the Activity (Mus musculus [3]) is reported as 45 g. It also gave an Activity (Mus musculus [4]) of 4.6 g, an Activity (Mus musculus [5]) of -3 mg/dL and an Activity (Mus musculus [6]) of 29.5 mg/dL. The Activity (Mus musculus [7]) was 41.4 g and the Activity (Mus musculus [8]) was 4.8 g.
`Cc1coc2c(O)c3c(c(C)c12)[C@@H](C)CCC3` [CACALOL] showed an Activity (Mus musculus [1]) of -105.1 mg/dL, an Activity (Mus musculus [2]) of -13.4 mg/dL and an Activity (Mus musculus [3]) of 45 g. For the same compound, the Activity (Mus musculus [4]) was 4.6 g, the Activity (Mus musculus [5]) was -124 mg/dL and the Activity (Mus musculus [6]) was 48.3 mg/dL. It also gave an Activity (Mus musculus [7]) of 43.5 g and an Activity (Mus musculus [8]) of 4.1 g.
For `CN(C)C(=N)NC(=N)N` [METFORMIN], the Activity (Mus musculus [9]) was -151.8 mg/dL, the Activity (Mus musculus [10]) was 76.1 mg/dL and the Activity (Mus musculus [11]) was 43.2 g. For the same compound, the Activity (Mus musculus [12]) was 4.5 g.
